Data taken from patent publication US9695155B2, “Herbicidal substituted pyrimidinyloxy benzene compounds” (E. I. DU PONT DE NEMOURS AND COMPANY, priority 2013, dated 2017).

Legend:
[1] = system: rice; experiment: Test B flooded paddy test; assay type: in vivo, Oryza sativa; conditions: Oryza sativa; Flood, 250 g ai/ha; 0 to 100 scale where 0 is no effect and 100 is complete control; read-out: Plant response rating, Rice
Method in brief: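 Flooded to 3 cm at the 2-leaf stage, pots received compound through the paddy water and were kept at that depth under greenhouse conditions. After 13–15 days, effect was rated by eye relative to controls, 0 = none and 100 = complete control.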

[2] = system: wheat, winter; experiment: Test C preemergence; assay type: in vivo, Triticum aestivum; conditions: Triticum aestivum, pre-emergence, preemergence, read-out: Wheat plant response rating
Method in brief: (§1)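 Whole-plant greenhouse test with surfactant-containing solvent formulation, applied preemergence to sown loam–sand pots or postemergence to 2–18 cm plants. Scored by eye 13 to 15 days on, 0–100 scale.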

[3] = system: soybean; experiment: Test C postemergence; assay type: in vivo, Glycine max
Method in brief: as §1

[4] = system: blackgrass; experiment: Test C postemergence; assay type: in vivo, Alopecurus myosuroides; conditions: Alopecurus myosuroides, post-emergence
Method in brief: as §1

[5] = system: oilseed rape; experiment: Test C postemergence; assay type: in vivo, Brassica napus
Method in brief: as §1

[6] = system: barnyardgrass; experiment: Test A preemergence; assay type: in vivo, Echinochloa crus-galli; conditions: Echinochloa crus-galli, pre-emergence, 240 h, 0 to 100 scale where 0 is no effect and 100 is complete control
Method in brief: (§2)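 Injury scores run from 0, no effect, to 100, complete control, judged by eye against untreated plants roughly 10 days after treatment. Chemicals carried a surfactant in a non-phytotoxic solvent and went onto loam–sand soil preemergence or onto one- to two-leaf seedlings postemergence.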

[7] = system: giant foxtail; experiment: Test C postemergence; assay type: in vivo, Setaria faberii; conditions: Setaria faberi, post-emergence
Method in brief: as §1

[8] = system: ragweed; experiment: Test C postemergence; assay type: in vivo, Ambrosia elatior
Method in brief: as §1

[9] = system: soybean; experiment: Test C preemergence; assay type: in vivo, Glycine max; conditions: Glycine max, pre-emergence, preemergence, read-out: Soybean plant response rating
Method in brief: as §1

[10] = system: barnyardgrass; experiment: Test C preemergence; assay type: in vivo, Echinochloa crus-galli; conditions: Echinochloa crus-galli, pre-emergence
Method in brief: as §1

[11] = system: wheat; experiment: Test A postemergence; assay type: in vivo, Triticum aestivum; conditions: Triticum aestivum, post-emergence, 240 h, 0 to 100 scale where 0 is no effect and 100 is complete control
Method in brief: as §2

[12] = system: large (Lg) crabgrass; experiment: Test C preemergence; assay type: in vivo, Digitaria sanguinalis; conditions: Digitaria sanguinalis, pre-emergence
Method in brief: as §1

[13] = system: blackgrass; experiment: Test C preemergence; assay type: in vivo, Alopecurus myosuroides; conditions: Alopecurus myosuroides, pre-emergence
Method in brief: as §1

[14] = system: morningglory; experiment: Test A postemergence; assay type: in vivo, Ipomoea spp.; conditions: 0 to 100 scale where 0 is no effect and 100 is complete control
Method in brief: as §2

[15] = 16 g ai/ha, scale 0 to 100 (0 no effect, 100 complete control)
[16] = 62 g ai/ha, scale 0 (no effect) to 100 (complete control)
[17] = 125 g ai/ha, scale 0 (no effect) to 100 (complete control)
[18] = 31 g ai/ha, postemergence, visual rating, scale 0 to 100 (0 no effect, 100 complete control), 13 to 15 days

`FC(F)(F)c1cn(-c2ccccc2Oc2ncc(Cl)cn2)nn1` [Compound 166, 5-chloro-2-[2-[4-(trifluoromethyl)-1H-1,2,3-triazol-1-yl]phenoxy]pyrimidine] gave a plant injury at 250 g/ha [1] of 75%, a plant injury at 16 g/ha [2, 15] of 0% and a plant injury at 62 g/ha [2, 16] of 60%. For the same compound, the plant injury at 125 g/ha [2, 17] was 90%, the “Soybean plant response rating” value [3, 18] was 95 and the Soybean plant response rating (crop injury, 0-100 scale) at 16 g/ha ([3]; Glycine max, post-emergence, 16 g ai/ha, postemergence, 0 is no effect, 100 is complete control) was 40%. The Soybean plant response rating (crop injury, 0-100 scale) at 125 g/ha ([3]; Glycine max, post-emergence, 125 g ai/ha, postemergence, visual rating, scale 0 to 100 (0 no effect, 100 complete control), read-out: Plant response rating, Soybean) was 95%, the Soybean plant response rating (crop injury, 0-100 scale) at 62 g/ha ([3]; Glycine max, post-emergence, Postemergence, 62 g ai/ha, scale 0 to 100 (0 no effect, 100 complete control)) was 90% and the pest or weed control at 16 g/ha ([4]; 16 g ai/ha, postemergence, 0 is no effect, 100 is complete control, read-out: Plant response rating (0 to 100), Blackgrass) was 5%. For the same compound, the pest or weed control at 31 g/ha ([4]; 31 g ai/ha, postemergence, visual rating, scale 0 to 100 (0 no effect, 100 complete control), 13 to 15 days, read-out: Blackgrass plant response rating) was 10%, the pest or weed control at 125 g/ha ([4]; 125 g ai/ha, postemergence, visual rating, scale 0 to 100 (0 no effect, 100 complete control), read-out: Plant response rating, Blackgrass) was 60% and the pest or weed control at 62 g/ha ([4]; Postemergence, 62 g ai/ha, scale 0 to 100 (0 no effect, 100 complete control), read-out: Plant response rating, Blackgrass) was 45%. The “Oilseed Rape plant response rating” value [5, 18] was 90, the plant injury at 16 g/ha ([5]; Brassica napus, post-emergence, 16 g ai/ha, postemergence, 0 is no effect, 100 is complete control, read-out: Plant response rating (0 to 100), Oilseed Rape) was 60% and the plant injury at 125 g/ha ([5]; Brassica napus, post-emergence, 125 g ai/ha, postemergence, visual rating, scale 0 to 100 (0 no effect, 100 complete control), read-out: Plant response rating, Oilseed Rape) was 98%. It also gave a plant injury at 62 g/ha ([5]; Brassica napus, post-emergence, Postemergence, 62 g ai/ha, scale 0 to 100 (0 no effect, 100 complete control), read-out: Plant response rating, Oilseed Rape) of 95%, a pest or weed control at 125 g/ha ([6]; 125 g ai/ha, read-out: Plant response rating, Barnyardgrass) of 90% and a pest or weed control at 500 g/ha ([6]; 500 g ai/ha, read-out: Barnyardgrass plant response rating) of 100%. It also gave a pest or weed control at 16 g/ha ([7]; 16 g ai/ha, postemergence, 0 is no effect, 100 is complete control, read-out: Plant response rating (0 to 100), Foxtail, Giant) of 5%, a pest or weed control at 31 g/ha ([7]; 31 g ai/ha, postemergence, visual rating, scale 0 to 100 (0 no effect, 100 complete control), 13 to 15 days, read-out: Foxtail, Giant plant response rating) of 5% and a pest or weed control at 125 g/ha ([7]; 125 g ai/ha, postemergence, visual rating, scale 0 to 100 (0 no effect, 100 complete control), read-out: Plant response rating, Foxtail, Giant) of 35%. The pest or weed control at 62 g/ha ([7]; Postemergence, 62 g ai/ha, scale 0 to 100 (0 no effect, 100 complete control), read-out: Plant response rating, Foxtail, Giant) was 10%, the “Ragweed plant response rating” value [8, 18] was 45 and the pest or weed control at 16 g/ha ([8]; Ambrosia artemisiifolia, post-emergence, 16 g ai/ha, postemergence, 0 is no effect, 100 is complete control, read-out: Plant response rating (0 to 100), Ragweed) was 35%. The pest or weed control at 125 g/ha ([8]; Ambrosia artemisiifolia, post-emergence, 125 g ai/ha, postemergence, visual rating, scale 0 to 100 (0 no effect, 100 complete control), read-out: Plant response rating, Ragweed) was 80%, the pest or weed control at 62 g/ha ([8]; Ambrosia artemisiifolia, post-emergence, Postemergence, 62 g ai/ha, scale 0 to 100 (0 no effect, 100 complete control), read-out: Plant response rating, Ragweed) was 60% and the plant injury at 16 g/ha [9, 15] was 60%. The plant injury at 62 g/ha [9, 16] was 95%, the plant injury at 125 g/ha [9, 17] was 95% and the pest or weed control at 16 g/ha ([10]; 16 g ai/ha, preemergence, scale 0 to 100 (0 no effect, 100 complete control), read-out: Barnyardgrass plant response rating) was 85%. The pest or weed control at 62 g/ha ([10]; 62 g ai/ha, preemergence, scale 0 (no effect) to 100 (complete control), read-out: Barnyardgrass plant response rating) was 100%, the pest or weed control at 125 g/ha ([10]; 125 g ai/ha, preemergence, scale 0 (no effect) to 100 (complete control), read-out: Barnyardgrass plant response rating) was 100% and the pest or weed control at 31 g/ha ([10]; Preemergence, 31 g ai/ha, scale 0 to 100, 0 no effect, 100 complete control, read-out: Plant response rating, Barnyardgrass) was 100%. For the same compound, the plant injury at 125 g/ha ([11]; 125 g ai/ha, read-out: Wheat plant response rating) was 60%, the plant injury at 500 g/ha ([11]; 500 g ai/ha, read-out: Plant response rating, Wheat) was 70% and the pest or weed control at 16 g/ha ([12]; 16 g ai/ha, preemergence, scale 0 to 100 (0 no effect, 100 complete control), read-out: Crabgrass, Large plant response rating) was 100%. The pest or weed control at 62 g/ha ([12]; 62 g ai/ha, preemergence, scale 0 (no effect) to 100 (complete control), read-out: Crabgrass, Large plant response rating) was 100%, the pest or weed control at 125 g/ha ([12]; 125 g ai/ha, preemergence, scale 0 (no effect) to 100 (complete control), read-out: Crabgrass, Large plant response rating) was 100% and the pest or weed control at 31 g/ha ([12]; Preemergence, 31 g ai/ha, scale 0 to 100, 0 no effect, 100 complete control, read-out: Plant response rating, Crabgrass, Large) was 100%. It also gave a pest or weed control at 16 g/ha ([13]; 16 g ai/ha, preemergence, scale 0 to 100 (0 no effect, 100 complete control), read-out: Blackgrass plant response rating) of 40%, a pest or weed control at 62 g/ha ([13]; 62 g ai/ha, preemergence, scale 0 (no effect) to 100 (complete control), read-out: Blackgrass plant response rating) of 90% and a pest or weed control at 125 g/ha ([13]; 125 g ai/ha, preemergence, scale 0 (no effect) to 100 (complete control), read-out: Blackgrass plant response rating) of 100%. The pest or weed control at 31 g/ha ([13]; Preemergence, 31 g ai/ha, scale 0 to 100, 0 no effect, 100 complete control, read-out: Plant response rating, Blackgrass) was 85%, the “Morningglory plant response rating” value ([14]; 125 g ai/ha) was 100 and the pest or weed control at 500 g/ha ([14]; Ipomoea, post-emergence, 240 h, 500 g ai/ha, read-out: Plant response rating, Morningglory) was 100%.
